Values quoted from earlier work, collected in patent publication US6346270B1, “Phenytoin therapy” (Alza Corporation, priority 1997, dated 2002).

solubility in aqueous fluids: poorly soluble
SMILES: O=C1NC(=O)C(c2ccccc2)(c2ccccc2)N1 [phenytoin]
